From patent US20250170240A1, “MODIFIED INVARIANT NATURAL KILLER T CELLS EXPRESSING A CHIMERIC ANTIGEN RECEPTOR AND USES THEREOF” (Tinkeso Therapeutics, Inc., priority 2022, published 2025)

Columns and labels:
[1] = tested on: CD1d^+ target cells; assay: Luciferase-based killing assay, glycolipid- or DMSO-pulsed CD1d+ target cells; type: cell-based, human; settings: effector thawed iNKT47 CD19 CAR (allo), FIG. 13B
Method: Luciferase-Based Killing Assay: αGalCer or DMSO pulsed target cells were prepared by incubating target cells (2×10^5/mL) at 37° C., 5% CO2 with αGalCer (200 ng/ml) or DMSO (1:500 of 10% stock) overnight and used for cytotoxicity assays after spinning to remove medium containing αGalCer or DMSO. Luciferase-expressing target cells (1×104 in 50 μL per well) were incubated with 50 μL of INKT cells per well at different effector T cell: target cell (E/T) ratios in quadruplicate in a 96-well flat-bottom white polystyrene microplate (Corning, Cat No. 3912). A spontaneous or maximal killing was set up by adding 50 μL per well of culture medium or 1% Triton X-100 instead of INKT cells, respectively. After a standard 4 h or 16 h (as indicated) incubation at 37° C., 10 μL of D-luciferin (1:10 of 30 mg/ml stock) or 50 μL (1:50 of 30 mg/mL) (Caliper Life Sciences, Cat No. XR-1001) was added to each well. Luciferase activity was measured using a Synergy 2 microplate reader (BioTek). Percent specific lysis was calculated as follows: […]

[2] = tested on: CD1d^+ target cells; assay: Cytokine release assay (IFN-γ ELISA), glycolipid-pulsed CD1d+ target cells; type: cell-based, human; settings: pulsed MV4:11-hfflucN; 3-month cultured INKT47 CD19 CAR (allo) and iNKT48 CD19 CAR/GFP (allo); FIG. 13C
Method: Cytokine Release Assays: Cytokine release assays were performed by co-culturing 1-2×10^5 T cells with 2×10^4 target cells per well in duplicate in 96-well flat-bottom plates. After 24 h, supernatants were assayed using a LEGEND MAX Human IFN-γ ELISA kit (BioLegend, Cat No. 430107).

Compound: CCCCCCCCCCCCCC[C@@H](O)[C@@H](O)[C@H](CO[C@H]1O[C@H](CO)[C@H](O)[C@H](O)[C@H]1O)NC(=O)CCCCCCCCCCc1ccc(F)cc1 [7DW8-5]
- potency relative to αGalCer in sensitizing CD1d+ target cells ([1]; Molm13): at least 16 fold
- potency relative to αGalCer in sensitizing CD1d+ target cells ([1]; THP1): ≥ 64 fold
- potency in stimulating iNKT cells to produce IFN-γ [2]: more potent than αGalCer
